From ChEMBL document CHEMBL4308841, “Synthesis, in vitro antiproliferative activity, and kinase inhibitory effects of pyrazole-containing diarylureas and diarylamides” (Eur J Med Chem, 2018)

Tests used:
RPMI-8226 = test: Growth inhibition of human RPMI8226 cells assessed as cell growth at 100 uM incubated for 48 hrs by sulforhodamine B assay relative to control; type: functional; details: RPMI-8226, 48 h, read-out: Activity
UACC-62 [1] = test: Growth inhibition of human UACC62 cells assessed as cell growth at 1 uM incubated for 48 hrs by sulforhodamine B assay relative to control; type: functional; details: UACC-62, 48 h, read-out: Activity
MDA-MB-468 = test: Growth inhibition of human MDA-MB-468 cells assessed as cell growth at 1 uM incubated for 48 hrs by sulforhodamine B assay relative to control; type: functional; details: MDA-MB-468, 48 h, read-out: Activity
Malme-3M = test: Growth inhibition of human MALME-3M cells assessed as cell growth at 1 uM incubated for 48 hrs by sulforhodamine B assay relative to control; type: functional; details: read-out: Activity
UACC-62 [2] = test: Growth inhibition of human UACC62 cells assessed as cell growth at 100 uM incubated for 48 hrs by sulforhodamine B assay relative to control; type: functional; details: UACC-62, 48 h, read-out: Activity
HOP-62 = test: Growth inhibition of human HOP62 cells assessed as cell growth at 1 uM incubated for 48 hrs by sulforhodamine B assay relative to control; type: functional; details: HOP-62, 48 h, read-out: Activity
RXF 393 = test: Growth inhibition of human RXF393 cells assessed as cell growth at 100 uM incubated for 48 hrs by sulforhodamine B assay relative to control; type: functional; details: RXF 393, 48 h, read-out: Activity
M14 = test: Growth inhibition of human M14 cells assessed as cell growth at 100 uM incubated for 48 hrs by sulforhodamine B assay relative to control; type: functional; details: M14, 48 h, read-out: Activity
UACC-257 [3] = test: Growth inhibition of human UACC257 cells incubated for 48 hrs by sulforhodamine B assay; type: functional, cell-based; details: UACC-257, 48 h
OVCAR-5 = test: Growth inhibition of human OVCAR5 cells assessed as cell growth at 100 uM incubated for 48 hrs by sulforhodamine B assay relative to control; type: functional; details: OVCAR-5, 48 h, read-out: Activity
K562 = test: Growth inhibition of human K562 cells incubated for 48 hrs by sulforhodamine B assay; type: functional, cell-based; details: K562, 48 h
HCC 2998 [4] = test: Growth inhibition of human HCC2998 cells assessed as cell growth at 1 uM incubated for 48 hrs by sulforhodamine B assay relative to control; type: functional; details: HCC 2998, 48 h, read-out: Activity
HCC 2998 [5] = test: Growth inhibition of human HCC2998 cells assessed as cell growth at 0.01 uM incubated for 48 hrs by sulforhodamine B assay relative to control; type: functional; details: HCC 2998, 48 h, read-out: Activity
UO-31 = test: Growth inhibition of human UO31 cells assessed as cell growth at 0.1 uM incubated for 48 hrs by sulforhodamine B assay relative to control; type: functional; details: UO-31, 48 h, read-out: Activity
NCI-H226 = test: Growth inhibition of human NCI-H226 cells assessed as cell growth at 1 uM incubated for 48 hrs by sulforhodamine B assay relative to control; type: functional; details: NCI-H226, 48 h, read-out: Activity
LOX IMVI = test: Growth inhibition of human LOXIMVI cells incubated for 48 hrs by sulforhodamine B assay; type: functional
SF-268 [6] = test: Growth inhibition of human SF268 cells incubated for 48 hrs by sulforhodamine B assay; type: functional, cell-based; details: SF-268, 48 h
NCI-H322M = test: Growth inhibition of human NCI-H322M cells assessed as cell growth at 0.1 uM incubated for 48 hrs by sulforhodamine B assay relative to control; type: functional; details: read-out: Activity
COLO 205 = test: Growth inhibition of human COLO205 cells assessed as cell growth at 0.01 uM incubated for 48 hrs by sulforhodamine B assay relative to control; type: functional; details: COLO 205, 48 h, read-out: Activity
UACC-257 [7] = test: Growth inhibition of human UACC257 cells assessed as cell growth at 0.1 uM incubated for 48 hrs by sulforhodamine B assay relative to control; type: functional; details: UACC-257, 48 h, read-out: Activity
NCI/ADR-RES = test: Growth inhibition of human NCI/ADR-RES cells assessed as cell growth at 0.01 uM incubated for 48 hrs by sulforhodamine B assay relative to control; type: functional; details: read-out: Activity
SNB-19 = test: Growth inhibition of human SNB19 cells assessed as cell growth at 1 uM incubated for 48 hrs by sulforhodamine B assay relative to control; type: functional; details: SNB-19, 48 h, read-out: Activity
SF-268 [8] = test: Growth inhibition of human SF268 cells assessed as cell growth at 0.01 uM incubated for 48 hrs by sulforhodamine B assay relative to control; type: functional; details: SF-268, 48 h, read-out: Activity
SN12C = test: Growth inhibition of human SN12C cells assessed as cell growth at 1 uM incubated for 48 hrs by sulforhodamine B assay relative to control; type: functional; details: read-out: Activity
U-251 = test: Growth inhibition of human U251 cells assessed as cell growth at 0.01 uM incubated for 48 hrs by sulforhodamine B assay relative to control; type: functional; details: U-251, 48 h, read-out: Activity
SW-620 = test: Growth inhibition of human SW620 cells incubated for 48 hrs by sulforhodamine B assay; type: functional, cell-based; details: SW-620, 48 h
DU-145 [9] = test: Growth inhibition of human DU145 cells assessed as cell growth at 0.1 uM incubated for 48 hrs by sulforhodamine B assay relative to control; type: functional; details: DU-145, 48 h, read-out: Activity
A498 = test: Growth inhibition of human A498 cells assessed as cell growth at 100 uM incubated for 48 hrs by sulforhodamine B assay relative to control; type: functional; details: A498, 48 h, read-out: Activity
DU-145 [10] = test: Growth inhibition of human DU145 cells assessed as cell growth at 0.01 uM incubated for 48 hrs by sulforhodamine B assay relative to control; type: functional; details: DU-145, 48 h, read-out: Activity
HT-29 = test: Growth inhibition of human HT-29 cells assessed as cell growth at 10 uM incubated for 48 hrs by sulforhodamine B assay relative to control; type: functional; details: HT-29, 48 h, read-out: Activity
[11] = read-out: LC50 (the source's name)
[12] = read-out: pLC50 (the source's name) (converted)

Question: What does the source list for `O=C(Nc1cccc(-n2cc(-c3ccncc3)c(-c3cc(O)cc(Cl)c3)n2)c1)Nc1ccc(Cl)c(Cl)c1`?
Answer: growth at 100 µM (RPMI-8226): -27%; growth at 1 µM (UACC-62 [1]): 83%; growth at 1 µM (MDA-MB-468): 59%; growth at 1 µM (Malme-3M): 76%; growth at 100 µM (UACC-62 [2]): -74%; growth at 1 µM (HOP-62): 97%; growth at 100 µM (RXF 393): -52%; growth at 100 µM (M14): -69%; GI50 (UACC-257 [3]; read-out: GI50): 1.96 µM; CC50 (UACC-257 [3]; [11]): 9.5 µM; TGI (UACC-257 [3]; read-out: TGI): 43 µM; GI50 (UACC-257 [3]; read-out: pGI50 (converted)): 1.95 µM; CC50 (UACC-257 [3]; [12]): 9.55 µM; TGI (UACC-257 [3]; read-out: pTGI (converted)): 4.27 µM; growth at 100 µM (OVCAR-5): -80%; GI50 (K562; read-out: GI50): 2.56 µM; LC50 (K562; read-out: LC50): > 100 µM; TGI (K562; read-out: TGI): > 100 µM; GI50 (K562; read-out: pGI50 (converted)): 2.57 µM; LC50 (K562; read-out: pLC50 (converted)): > 100 µM; TGI (K562; read-out: pTGI (converted)): > 100 µM; growth at 1 µM (HCC 2998 [4]): 96%; growth at 0.01 µM (HCC 2998 [5]): 104%; growth at 0.1 µM (UO-31): 93%; growth at 1 µM (NCI-H226): 96%; GI50 (LOX IMVI; read-out: GI50): 1.56 µM; TGI (LOX IMVI; read-out: TGI): 41 µM; GI50 (LOX IMVI; read-out: pGI50 (converted)): 1.86 µM; TGI (LOX IMVI; read-out: pTGI (converted)): 4.17 µM; GI50 (SF-268 [6]; read-out: GI50): 3.22 µM; CC50 (SF-268 [6]; [11]): > 100 µM; TGI (SF-268 [6]; read-out: TGI): 32.6 µM; GI50 (SF-268 [6]; read-out: pGI50 (converted)): 3.24 µM; CC50 (SF-268 [6]; [12]): > 100 µM; TGI (SF-268 [6]; read-out: pTGI (converted)): 33.1 µM; growth at 0.1 µM (NCI-H322M): 88%; growth at 0.01 µM (COLO 205): 106%; growth at 0.1 µM (UACC-257 [7]): 91%; growth at 0.01 µM (NCI/ADR-RES): 109%; growth at 1 µM (SNB-19): 90%; growth at 0.01 µM (SF-268 [8]): 94%; growth at 1 µM (SN12C): 58%; growth at 0.01 µM (U-251): 96%; GI50 (SW-620; read-out: GI50): 3.22 µM; LC50 (SW-620; read-out: LC50): > 100 µM; TGI (SW-620; read-out: TGI): 99.7 µM; GI50 (SW-620; read-out: pGI50 (converted)): 3.24 µM; LC50 (SW-620; read-out: pLC50 (converted)): > 100 µM; TGI (SW-620; read-out: pTGI (converted)): 10 µM; growth at 0.1 µM (DU-145 [9]): 104%; growth at 100 µM (A498): -79%; growth at 0.01 µM (DU-145 [10]): 108%

Question: Which growth at 10 µM (HT-29) does the source give for `COc1cc(Cl)cc(-c2nn(-c3cccc(NC(=O)c4ccc(Cl)c(Cl)c4)c3)cc2-c2ccncc2)c1` here?
Answer: The growth at 10 µM was 56.4%.
